The NIST ThermoML archive (doi:10.1016/j.jct.2009.11.014)

Details: Liquid; for mass density: vibrating tube; for viscosity: Stony Brook Scientific falling needle HPHTV-100 viscometer

CCCCCCCC[n+]1ccn(C)c1.F[B-](F)(F)F [1-methyl-3-octylimidazolium tetrafluoroborate]
Details | mass density [kg/m3] | viscosity [mPa·s]
283.15 K, 100 kPa | 1114.58 | –
283.15 K, 2000 kPa | 1115.49 | –
283.15 K, 4000 kPa | 1116.46 | –
283.15 K, 6000 kPa | 1117.44 | –
283.15 K, 8000 kPa | 1118.4 | –
283.15 K, 10000 kPa | 1119.31 | –
283.15 K, 12000 kPa | 1120.25 | –
283.15 K, 14000 kPa | 1121.19 | –
283.15 K, 20000 kPa | 1123.96 | –
283.15 K, 30000 kPa | 1128.45 | –
283.15 K, 40000 kPa | 1132.79 | –
283.15 K, 50000 kPa | 1136.9 | –
283.15 K, 60000 kPa | 1140.94 | –
283.53 K, 140 kPa | – | 774.7
283.53 K, 680 kPa | – | 781
283.55 K, 1680 kPa | – | 793.9
283.55 K, 7960 kPa | – | 878.4
283.6 K, 11830 kPa | – | 908.6
283.6 K, 14620 kPa | – | 950.1
283.61 K, 10090 kPa | – | 894.7
283.63 K, 4380 kPa | – | 815.4
283.65 K, 4110 kPa | – | 811.4
283.67 K, 5540 kPa | – | 834.1
283.72 K, 2750 kPa | – | 803.7
288.15 K, 100 kPa | 1111.12 | –
288.15 K, 2000 kPa | 1112.07 | –
288.15 K, 4000 kPa | 1113.07 | –
288.15 K, 6000 kPa | 1114.04 | –
288.15 K, 8000 kPa | 1115.03 | –
288.15 K, 10000 kPa | 1116.03 | –
288.15 K, 12000 kPa | 1116.94 | –
288.15 K, 14000 kPa | 1117.9 | –
288.15 K, 20000 kPa | 1120.72 | –
288.15 K, 30000 kPa | 1125.21 | –
288.15 K, 40000 kPa | 1129.56 | –
288.15 K, 50000 kPa | 1133.75 | –
288.15 K, 60000 kPa | 1137.81 | –
293.15 K, 100 kPa | 1107.68 | –
293.15 K, 2000 kPa | 1108.68 | –
293.15 K, 4000 kPa | 1109.68 | –
293.15 K, 6000 kPa | 1110.66 | –
293.15 K, 8000 kPa | 1111.66 | –
293.15 K, 10000 kPa | 1112.63 | –
293.15 K, 12000 kPa | 1113.61 | –
293.15 K, 14000 kPa | 1114.55 | –
293.15 K, 20000 kPa | 1117.38 | –
293.15 K, 30000 kPa | 1121.95 | –
293.15 K, 40000 kPa | 1126.31 | –
293.15 K, 50000 kPa | 1130.56 | –
293.15 K, 60000 kPa | 1134.64 | –
293.65 K, 130 kPa | – | 403.7
293.65 K, 2010 kPa | – | 409.7
293.65 K, 4090 kPa | – | 423
293.65 K, 4310 kPa | – | 418.7
293.65 K, 6110 kPa | – | 433.3
293.65 K, 6580 kPa | – | 434.4
293.65 K, 8080 kPa | – | 447.6
293.65 K, 10200 kPa | – | 458.3
293.65 K, 12100 kPa | – | 466.6
293.65 K, 14310 kPa | – | 478.8
293.65 K, 14330 kPa | – | 483.6
298.15 K, 100 kPa | 1104.31 | –
298.15 K, 2000 kPa | 1105.26 | –
298.15 K, 4000 kPa | 1106.28 | –
298.15 K, 6000 kPa | 1107.31 | –
298.15 K, 8000 kPa | 1108.29 | –
298.15 K, 10000 kPa | 1109.29 | –
298.15 K, 12000 kPa | 1110.27 | –
298.15 K, 14000 kPa | 1111.29 | –
298.15 K, 20000 kPa | 1114.12 | –
298.15 K, 30000 kPa | 1118.74 | –
298.15 K, 40000 kPa | 1123.16 | –
298.15 K, 50000 kPa | 1127.47 | –
298.15 K, 60000 kPa | 1131.57 | –
303.15 K, 100 kPa | 1100.92 | –
303.15 K, 2000 kPa | 1101.88 | –
303.15 K, 4000 kPa | 1102.9 | –
303.15 K, 6000 kPa | 1103.93 | –
303.15 K, 8000 kPa | 1104.97 | –
303.15 K, 10000 kPa | 1105.98 | –
303.15 K, 12000 kPa | 1107.03 | –
303.15 K, 14000 kPa | 1107.96 | –
303.15 K, 20000 kPa | 1110.85 | –
303.15 K, 30000 kPa | 1115.56 | –
303.15 K, 40000 kPa | 1120.01 | –
303.15 K, 50000 kPa | 1124.34 | –
303.15 K, 60000 kPa | 1128.52 | –
303.74 K, 13240 kPa | – | 258.3
303.8 K, 2750 kPa | – | 227.3
303.82 K, 14800 kPa | – | 261.8
303.85 K, 4160 kPa | – | 230.6
303.85 K, 5600 kPa | – | 233.6
303.91 K, 8710 kPa | – | 241.6
303.95 K, 11220 kPa | – | 250.7
303.96 K, 160 kPa | – | 219.1
304.01 K, 2040 kPa | – | 222.9
304.03 K, 1190 kPa | – | 221.6
304.05 K, 6140 kPa | – | 232.1
304.05 K, 7390 kPa | – | 238.6
308.15 K, 100 kPa | 1097.49 | –
308.15 K, 2000 kPa | 1098.5 | –
308.15 K, 4000 kPa | 1099.56 | –
308.15 K, 6000 kPa | 1100.61 | –
308.15 K, 8000 kPa | 1101.64 | –
308.15 K, 10000 kPa | 1102.66 | –
308.15 K, 12000 kPa | 1103.66 | –
308.15 K, 14000 kPa | 1104.66 | –
308.15 K, 20000 kPa | 1107.61 | –
308.15 K, 30000 kPa | 1112.34 | –
308.15 K, 40000 kPa | 1116.89 | –
308.15 K, 50000 kPa | 1121.29 | –
308.15 K, 60000 kPa | 1125.53 | –
312.95 K, 650 kPa | – | 137.4
312.95 K, 1600 kPa | – | 139.3
313.05 K, 130 kPa | – | 137.3
313.05 K, 2670 kPa | – | 141.1
313.05 K, 4260 kPa | – | 142.8
313.05 K, 6130 kPa | – | 145.7
313.05 K, 8180 kPa | – | 150.2
313.05 K, 10130 kPa | – | 152.7
313.05 K, 12200 kPa | – | 157.1
313.05 K, 14260 kPa | – | 161
313.15 K, 100 kPa | 1094.13 | –
313.15 K, 2000 kPa | 1095.13 | –
313.15 K, 4000 kPa | 1096.26 | –
313.15 K, 6000 kPa | 1097.28 | –
313.15 K, 8000 kPa | 1098.3 | –
313.15 K, 10000 kPa | 1099.33 | –
313.15 K, 12000 kPa | 1100.39 | –
313.15 K, 14000 kPa | 1101.41 | –
313.15 K, 20000 kPa | 1104.39 | –
313.15 K, 30000 kPa | 1109.19 | –
313.15 K, 40000 kPa | 1113.81 | –
313.15 K, 50000 kPa | 1118.25 | –
313.15 K, 60000 kPa | 1122.52 | –
318.15 K, 100 kPa | 1090.78 | –
318.15 K, 2000 kPa | 1091.83 | –
318.15 K, 4000 kPa | 1092.91 | –
318.15 K, 6000 kPa | 1094 | –
318.15 K, 8000 kPa | 1095.03 | –
318.15 K, 10000 kPa | 1096.1 | –
318.15 K, 12000 kPa | 1097.15 | –
318.15 K, 14000 kPa | 1098.18 | –
318.15 K, 20000 kPa | 1101.2 | –
318.15 K, 30000 kPa | 1106.06 | –
318.15 K, 40000 kPa | 1110.72 | –
318.15 K, 50000 kPa | 1115.21 | –
318.15 K, 60000 kPa | 1119.54 | –
323.15 K, 100 kPa | 1087.45 | –
323.15 K, 2000 kPa | 1088.5 | –
323.15 K, 4000 kPa | 1089.6 | –
323.15 K, 6000 kPa | 1090.68 | –
323.15 K, 8000 kPa | 1091.76 | –
323.15 K, 10000 kPa | 1092.8 | –
323.15 K, 12000 kPa | 1093.87 | –
323.15 K, 14000 kPa | 1094.9 | –
323.15 K, 20000 kPa | 1097.97 | –
323.15 K, 30000 kPa | 1102.88 | –
323.15 K, 40000 kPa | 1107.6 | –
323.15 K, 50000 kPa | 1112.12 | –
323.15 K, 60000 kPa | 1116.48 | –
323.43 K, 140 kPa | – | 83.7
323.46 K, 680 kPa | – | 84.3
323.55 K, 1710 kPa | – | 85
323.56 K, 13080 kPa | – | 96.3
323.58 K, 14330 kPa | – | 97.4
323.63 K, 9640 kPa | – | 92.7
323.65 K, 130 kPa | – | 83.6
323.65 K, 2760 kPa | – | 85.9
323.65 K, 6190 kPa | – | 88.2
323.65 K, 11060 kPa | – | 93.2
323.68 K, 4240 kPa | – | 86.8
323.73 K, 8190 kPa | – | 90.2
323.75 K, 10400 kPa | – | 92.1
323.75 K, 12340 kPa | – | 94
